Experiment [1] has as its target T1, Protein cereblon/DNA damage-binding protein 1 (Homo sapiens) (UniProt Q96SW2+Q16531). Kind of experiment: Induction of thermal stabilization of ZZ domain 6-His thrombin tagged human CRBN (1 to 442 residues)/[…] human DDB1 (396 to 706 residues) expressed in baculovirus infected Sf9 cells assessed as change in thermal shift incubated for 1 hr by […] analysis.

The target of experiment [2] is Protein cereblon/DNA damage-binding protein 1 (Homo sapiens, UniProt Q96SW2). Kind of experiment: Binding affinity to 6-his tagged CRBN (1 to 442 residues)/ DDB1 (1 to 1140 residues) (unknown origin) incubated for 20 mins by time-resolved fluorescence probe displacement assay. Type of experiment: protein assay.
A short description of experiment [3]: Induction of degradation of ePL tagged CK1alpha in human MDS-L cells incubated for 4 hrs by luminescence based analysis. Type of experiment: cell-based.
Experiment [4] addresses Zinc finger protein Aiolos (Homo sapiens, UniProt Q9UKT9). Kind of experiment: Induction of degradation of ePL tagged AIOLOS in human DF15 cells incubated for 4 hrs by luminescence based analysis. Type of experiment: cell-based.
Experiment [5] concerns DF15. The experiment is described as follows: Induction of degradation of ePL tagged GSPT1 in human DF15 cells by measuring minimum efficacy incubated for 20 hrs by luminescence based analysis. Type of experiment: cell-based.
Experiment [6] addresses T1, Protein cereblon/DNA damage-binding protein 1 (Homo sapiens). Particulars: Sf9.
For experiment [7] the target is unchanged. Conditions: Sf9. This is another data set of the same source.
The test system of experiment [8] is MDS-L. Kind of experiment: Induction of degradation of ePL tagged CK1alpha in human MDS-L cells by measuring minimum efficacy incubated for 4 hrs by luminescence based analysis relative to control. Type of experiment: cell-based.
The nature of experiment [9]: Induction of degradation of ePL tagged GSPT1 in human DF15 cells incubated for 20 hrs by luminescence based analysis. Type of experiment: cell-based. Particulars: DF15, 20 h.

Results on eight compounds are retold here after ChEMBL document CHEMBL6121024, “Development of a Buchwald-Hartwig Amination for an Accelerated Library Synthesis of Cereblon Binders” (ACS Med Chem Lett, 2025).

One may read the ΔTm as the shift of the melting midpoint relative to a reference. The term IC50 denotes the concentration at which inhibition is half-maximal. The low end stands for greater potency, the high end for weaker potency. As to `Cn1nc(C2CCC(=O)NC2=O)c2ccc(NC3CCNCC3)cc21` (stereo not drawn), the ΔTm in [1] came out at 6 °C. The same compound registered an IC50 in experiment [2] of 0.03 µM.

Broadly, the EC50 is the midpoint of the concentration-response curve. Higher therefore signals lower potency in that assay. On to `Cn1nc(C2CCC(=O)NC2=O)c2ccc(N3CCOCC3)cc21` (stereo not drawn), for which the EC50 in experiment [3], in experiment [4] and in experiment [9] was more than 10 µM each time. The Emin in experiment [5] amounted to 93%; in experiment [8] it was 100%. Moreover, in [6], the Tm came to 66.2 °C. For the same compound, the ΔTm in [7] worked out at 5.7 °C. In addition, the IC50 in experiment [2] turned out to be 0.07 µM.

Regarding `CC(C)(C)OC(=O)N1CCC(CNc2ccc3c(ccn3C3CCC(=O)NC3=O)n2)CC1` (stereo not drawn), the EC50 in experiment [3], in experiment [4] and in experiment [9] was more than 10 µM each time. Also, the Emin in experiment [5] came out at 99%; in experiment [8], 100%. In addition, the Tm in [6] is 64.5 °C. Besides, in experiment [7], the ΔTm turned out to be 4 °C. This compound also yielded an IC50 in [2] of 0.59 µM.

Take `CN(C(=O)OC(C)(C)C)C1CCN(c2cc3c(cc2F)c(C2CCC(=O)NC2=O)nn3C)CC1` (stereo not drawn): the EC50 was more than 10 µM in [3], more than 10 µM in experiment [4] and 1.69 µM in experiment [9]. For the same compound, the figures for the Emin in experiment [5] and in experiment [8] were 44% and 74%, respectively. Further, the Tm in [6] was found to be 65.4 °C. For the same compound, the ΔTm in experiment [7] was found to be 5 °C. In addition, the IC50 in experiment [2] came to 0.19 µM.

On to `Cn1nc(C2CCC(=O)NC2=O)c2ccc(NC3CC4(C3)CN(C(=O)OC(C)(C)C)C4)cc21` (stereo not drawn), for which the EC50 in [3], in experiment [4] and in experiment [9] was more than 10 µM throughout. Moreover, the Emin in [5] was determined as 84%; in [8], 82%. Moreover, the Tm in experiment [6] is 66.9 °C. Also, the ΔTm in experiment [7] worked out at 6.4 °C. The same compound returned an IC50 in [2] of 0.02 µM.

`CN(C(=O)OC(C)(C)C)C1CCN(c2ccc3c(c2)c(C2CCC(=O)NC2=O)nn3C)CC1` (stereo not drawn): the EC50 in experiment [3], in experiment [4] and in experiment [9] was more than 10 µM each time. Moreover, the Emin in [5] was 99%; in experiment [8] it was 98%. In addition, in [6], the Tm was 62.5 °C. Moreover, the ΔTm in experiment [7] amounted to 2.1 °C. This compound had an IC50 in experiment [2] of 0.68 µM.

Take `CC(C)(C)OC(=O)N1CCC(CNc2ccc(C3CCC(=O)NC3=O)cc2)CC1` (stereo not drawn): the EC50 in [3], in [4] and in experiment [9] was more than 10 µM each time. Also, the figures for the Emin in [5] and in [8] were 91% and 85%, respectively. Moreover, the Tm in experiment [6] is 63.8 °C. Besides, the ΔTm in experiment [7] was 3.4 °C. Also, the IC50 in [2] was 1.74 µM.

In the case of `Cn1nc(C2CCC(=O)NC2=O)c2ccc(NC3CCCN(C(=O)OC(C)(C)C)CC3)cc21` (stereo not drawn), the EC50 in experiment [3], in experiment [4] and in experiment [9] was more than 10 µM each time. The Emin in [5] was determined as 85%; in experiment [8], 91%. In addition, in experiment [6], the Tm was 66.2 °C. The ΔTm in experiment [7] worked out at 5.8 °C. The IC50 in experiment [2] was 0.04 µM.
